From patent publication US9072729B2, “Method for treating fibrosis and cancer with imidazolium and imidazolinium compounds” (Agency for Science, Technology and Research, priority 2008, dated 2015)

Columns and labels:
MCF-10A = test: Growth inhibition assay (MTT), MCF-10A; details: 72 h
Description: (§2) The percentage of growth inhibition was determined by using a MTT assay to measure viable cells. For the MTT assay, 1×10^3 cells per well were cultured in 96-well plates and treated with 0 to 100 μM of various types of IMSs for 72 h. After incubation for specified times at 37° C. in a humidified incubator, culture medium replaced with 10 μL of MTT reagent (5 mg/mL) contains 100 μL medium was added to each well and further incubated for 4 h. The reaction was stopped by adding 100 μL of DMSO. Absorbance was measured at 570 nm on a micro plate reader (SpectroMax 190, Molecular Devices). Data were presented from three separate experiments, and the percentage of IMSs induced cell growth inhibition was determined where DMSO-treated cells (control) were taken as 100%.
(§3) First, the cytotoxic effect of these drugs on these cells was investigated using the MTT assay. Cells were seeded into 96 well plates and treated with increasing concentrations of these synthetic organic molecules for 72 h, and then the cytotoxic effect was measured.

MKN 28 = test: Growth inhibition assay (MTT), MKN 28; format: cell-based, human; details: MKN 28, 72 h
Description: as §2, §3

MDAMB231 = test: Growth inhibition assay (MTT), MDAMB231; format: cell-based, human; details: MDAMB231, 72 h
Description: as §2, §3

Huh7 cells = test: HCC xenograft model (Huh7 cells in Balb/c nude mice); format: in vivo, mouse; details: 3 weeks
Description: (§1) Balb/c Nude mice, 5-6 weeks old, were inoculated with 1×10^7 Huh7 cells in 0.2 ml volume of Matrigel/DMEM mix. Since not every mouse developed a tumor after the inoculation of HCC cells, only those with visible tumors (about 8 weeks after inoculation) were used for subsequent experiment. The tumor-bearing mice were randomly divided to the control and the treatment group. (n=3), respectively. Mice in the treatment group had free access to drinking water containing DBZIM (2 grams/liter) only, while mice in the control group had free access to Water only. The compound treatment lasted for 3 weeks. The tumor size was measured weekly, and the tumor volume was calculated using the formula: 0.52×width^2×length.
as §1, with “group” for “group.”, “compound 9 (IBN-9) at 0.6 g/l or 1.5 g/l” for “DBZIM (2 grams/liter)”, “water” for “Water”

IC50 (MKN 28): 10 µM
IC50 (MDAMB231): 20 µM
SMILES: CC(=O)Oc1ccc(Cn2cc[n+](-c3c(C)cc(C)cc3C)c2)cc1.[Cl-] [compound 9, 1-(2,4,6-trimethylphenyl)-3-(4-acetate-benzyl)-imidazolium chloride]
IC50 in normal breast epithelial cells (MCF-10A): no IC50
reduction of tumor volume (Huh7 cells; 0.6 g/l in drinking water): 43%
body weight or gross pathology (Huh7 cells; 0.6 g/l or 1.5 g/l in drinking water): No change in body weight or gross pathology
reduction of tumor volume (Huh7 cells; 1.5 g/l in drinking water): 62%
